{"source": "paper PMC4368888", "about": "“Preclinical to Clinical Translation of CNS Transporter Occupancy of TD-9855, a Novel Norepinephrine and Serotonin Reuptake Inhibitor” (International Journal of Neuropsychopharmacology, 2015)", "key": {"[1]": {"assay": "Safety and tolerability in Phase 1 PET study", "format": "in vivo, human", "details": "healthy males, single oral dose 4-20mg", "experimental": "All adverse events (AEs) were assessed by the investigator and recorded in the case report form, including the dates of onset and resolution, severity, relationship to study drug, outcome, and action taken with study medication after the dosing of TD-9855 through the follow-up visit. Safety was assessed during the entire study by measurement of vital signs, laboratory tests, and evaluation of ECGs."}, "[2]": {"set-up": "method as in Theravance Biopharma US, Inc., data on file", "details": "rat; ref Theravance Biopharma US, Inc., data on file; cited from earlier work"}, "NET": {"target": "NET (Homo sapiens, UniProt P23975)", "sequence (P23975 whole entry)": "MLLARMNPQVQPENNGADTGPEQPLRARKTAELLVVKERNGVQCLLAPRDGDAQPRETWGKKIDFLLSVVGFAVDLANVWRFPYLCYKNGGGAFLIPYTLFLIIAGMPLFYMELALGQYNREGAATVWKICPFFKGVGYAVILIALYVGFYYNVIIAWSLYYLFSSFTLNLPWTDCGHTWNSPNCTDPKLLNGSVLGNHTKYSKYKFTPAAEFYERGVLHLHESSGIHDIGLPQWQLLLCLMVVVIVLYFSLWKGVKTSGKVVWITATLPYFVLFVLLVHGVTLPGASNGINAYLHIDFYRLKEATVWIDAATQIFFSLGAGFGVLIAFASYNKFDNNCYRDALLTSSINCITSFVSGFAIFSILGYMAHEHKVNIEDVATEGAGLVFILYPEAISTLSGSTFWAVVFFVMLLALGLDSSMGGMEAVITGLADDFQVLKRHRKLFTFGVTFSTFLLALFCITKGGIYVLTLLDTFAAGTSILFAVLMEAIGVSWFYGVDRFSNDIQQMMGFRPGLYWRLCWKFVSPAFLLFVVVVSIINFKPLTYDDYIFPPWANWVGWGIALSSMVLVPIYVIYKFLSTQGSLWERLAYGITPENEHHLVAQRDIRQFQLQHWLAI", "assay": "Human PET NET occupancy with [11C]-MRB", "format": "in vivo", "set-up": "from tissue; host or cells: brain of healthy male volunteers, in vivo PET", "experimental": "This was a Phase 1, open-label, single-dose study in healthy male volunteers to evaluate NET and SERT occupancy in the human brain after oral administration of TD-9855 using PET.\nThe study was conducted at the Yale PET Center in accordance with the principles of the International Conference on Harmonisation’s Technical Requirements for Registration of Pharmaceuticals for Human Use Guideline for Good Clinical Practice. The protocol was approved by the Yale University Human Investigation Committee and the Yale–New Haven Hospital Radiation Safety Committee. SERT and NET occupancy were determined using the selective radiotracers [^11C]-DASB ([Meyer et al., 2004]; [Takano et al., 2006]; [Abanades et al., 2011]; [Nogami et al., 2013]) and [^11C]-MRB. Selection of the radiotracers and the dose of TD-9855 were flexible to minimize the number of PET scans.\nEligible subjects were enrolled and received either [^11C]-MRB and/or [^11C]-DASB. Each subject underwent up to 5 PET scans over a period of up to 8 days. Multiple dose levels of TD-9855 (up to 20mg) were explored. All randomized subjects received the NET tracer (single-tracer evaluation) and some subjects (n = 3) received both the NET and SERT tracers sequentially (dual-tracer evaluation) in the baseline and post-dose period. […] In the dual-tracer evaluation, subjects completed sequential [^11C]-DASB and [^11C]-MRB baseline scans with each tracer, sequential post-dose scans with each tracer at 7–10hr post-dose, and one follow-up scan with [^11C]-MRB on or between Days 3 and 7.\nThe injected dose of both tracers was typically 14–15 mCi, with mass doses less than 10 µg in all cases. PET images were acquired using the High Resolution Research Tomograph (HRRT; Siemens/CTI) with a reconstructed image resolution of approximately 3mm. Following a transmission scan, [^11C]-MRB or [^11C]-DASB was injected intravenously as a 1min bolus by an infusion pump. List-mode data were acquired for 120min. Head motion correction was performed using an optical tracking tool (Vicra, NDI Systems) and a rigid tool attached to a swim cap.\nThe occipital cortex was selected as the reference region for [^11C]-MRB due to the low density of NET measured in vitro ([Schou et al., 2005]) and the absence of specific binding in a previous study ([Hannestad et al., 2010]). The regions of interest (ROIs) selected to assess [^11C]-MRB specific binding included one cortical region and the paracentral lobule, thalamus, hypothalamus, locus ceruleus, nucleus rubra, and raphe nucleus. The thalamus and cortical ROIs were delineated using the Automated Anatomical Labeling (AAL) template ([Tzourio-Mazoyer et al., 2002]). The hypothalamus, locus ceruleus, nucleus rubra, and raphe nucleus ROIs were drawn on the template MR image, based on the AAL template ([Hannestad et al., 2010]).\nFor both studies, binding potentials (BP ND) were estimated using a method based on a reference region input curve. For [^11C]-MRB regional BP ND were computed using the multilinear reference tissue model 2 (MRTM2; [Ichise et al., 2003]). The suitability of MRTM2 to estimate [^11C]-MRB BP ND values was evaluated in a previous study ([Hannestad et al., 2010]), in which it was shown that MRTM2 BP ND estimates are highly correlated with BP ND estimated with arterial blood sampling and the multilinear analysis 1 (y = 0.909 x + 0.078, r^2 = 0.821, where x represents the MA1 BP ND values and y represents the MRTM2 BP ND values). BP ND values and their associated standard errors ( SEBPND ) for each ROI were then estimated by performing fits of the regional TACs. Data were fitted starting at time t* = 20min. For [^11C]-DASB, regional BP ND values were computed using simplified reference tissue model 2 (SRTM2; [Wu and Carson, 2002]). SRTM2 is similar to MRTM2, except that it uses the full data set, while MRTM2 uses the period of time t > t*. When applied to single-voxel TACs, these fits provided the BP ND images. […]"}, "[3]": {"details": "4 mg single oral dose, individual subjects, rApp ± SE"}, "[4]": {"details": "10 mg single oral dose, individual subject, rApp ± SE"}, "[5]": {"details": "20 mg single oral dose, individual subject, rApp ± SE"}, "[6]": {"details": "20 mg single oral dose, individual subjects, rApp ± SE"}}, "note": "Several values for one entry are separate records, joined by “and”; a condition that tells them apart may be missing. Equal values may be shown once."}
{"smiles": "Fc1cc(F)c(OCc2ccccc2C2CCNCC2)c(F)c1", "note": "[TD-9855, 4-[2-(2,4,6-trifluorophenoxymethyl)phenyl]piperidine]", "values": [{"measurement": "clinical laboratory values, physical examination, vital signs, ECG", "setting": "[1]", "result": "No clinically significant abnormalities"}, {"measurement": "deaths and adverse events", "setting": "[1]", "result": "No deaths, severe AEs, or AEs occurred"}, {"measurement": "overall tolerability", "setting": "[1]", "result": "well tolerated"}, {"measurement": "plasma protein binding", "setting": "[2]", "result": 90.2, "unit": "%"}, {"measurement": "Apparent NET Occupancy Day 7", "setting": "NET; 4 mg single oral dose, individual subject, rApp ± SE", "result": "3.2±7.8", "unit": "%"}, {"measurement": "Apparent NET Occupancy Day 1", "setting": "NET; [3]", "result": "57.9±4.7% and 58.7±5.5% and 42.2±6.4%"}, {"measurement": "Apparent NET Occupancy Day 3", "setting": "NET; [3]", "result": "57.3±3.8% and 47.2±6.0% and 29.6±7.1%"}, {"measurement": "Apparent NET Occupancy Day 1", "setting": "NET; [4]", "result": "110.3±7.4", "unit": "%"}, {"measurement": "Apparent NET Occupancy Day 3", "setting": "NET; [4]", "result": "92.0±10.8", "unit": "%"}, {"measurement": "Apparent NET Occupancy Day 6", "setting": "NET; [5]", "result": "62.9±5.0", "unit": "%"}, {"measurement": "Apparent NET Occupancy Day 7", "setting": "NET; [5]", "result": "2.6±11.6", "unit": "%"}, {"measurement": "Apparent NET Occupancy Day 1", "setting": "NET; [6]", "result": "120.3±6.2% and 98.4±4.7% and 119.1±8.3% and 121.2±4.5%"}, {"measurement": "Apparent NET Occupancy Day 3", "setting": "NET; [6]", "result": "96.2±10.2% and 124.3±4.9%"}, {"measurement": "EC50", "setting": "NET; human brain PET, single oral 4-20mg, fit ± standard error, read-out: plasma EC50 for NET occupancy (converted)", "result": 3.77, "unit": "nM"}]}
